Test results published in patent publication US6498158B1, “Il-5 inhibiting 6-azauracil derivatives” (Janssen Pharmaceutica N.V., priority 1998, dated 2002).

Tests used:
IL-5 production = assay: In vitro inhibition of IL-5 production in human blood; type: cell-based; conditions: test dose of 1×10^−6 M, phytohemagglutinin-stimulated human whole blood, ELISA; for inhibition at 1 µM: Homo sapiens, 48 h, read-out: % inh. (percentage inhibition of IL-5 production); for % inh. (percentage inhibition of IL-5 production): 48 hours
Description: In Vitro Inhibition of IL-5 Production in Human Blood
Human Whole Blood Stimulation
Peripheral blood from healthy male donors was drawn into heparinized syringes (12.5 U heparin/ml). Blood samples were three-fold diluted in RMPI 1640 medium (Life Technologies, Belgium) supplemented with 2 mM L-glutamine, 100 U/ml penicillin and […] streptomycin, and […] fractions were distributed in 24-well multidisc plates. Blood samples were preincubated (60 minutes at 37° C.) in a humidified 6% CO2-atmosphere with 100 ml of drug solvent (final concentration 0.02% dimethylsulfoxide in RPMI 1640) or with 100 ml of an appropriate dose of test compound before being stimulated by the addition of […] of phytohemagglutinin HA17 (Murex, UK) at a final concentration of […]. After 48 hours, cell-free supernatant fluids were collected by centrifugation and stored at −70° C. until tested for the presence of IL-5.
IL-5 measurements were conducted as described in Van Wauwe et al. (1996, Inflamm Res, 45, 357-363) on page 358 using ELISA.
Table 3 lists the percentage inhibition of IL-5 production (column “% inh”) at a test dose of 1×10^−6 M for the compounds of the present invention.

Row | SMILES | melting point [°C] | inhibition at 1 µM (IL-5 production) [%] | % inh. (percentage inhibition of IL-5 production) (IL-5 production) [%]
1 | N#CC1(c2c(Cl)cc(-n3ncc(=O)[nH]c3=O)cc2Cl)CCc2ccccc21 (centres unmarked) [Compound 1] | – | 70.5 | –
2 | Cc1sc(C2(c3c(Cl)cc(-n4ncc(=O)[nH]c4=O)cc3Cl)CCc3ccccc32)nc1-c1ccccc1 (centres unmarked) [Compound 6] | – | – | 91

Second part, led by results:

Row | melting point [°C] | SMILES | inhibition at 1 µM (IL-5 production) [%] | % inh. (percentage inhibition of IL-5 production) (IL-5 production) [%]
3 | 88 | CCOC(=O)C1(c2c(Cl)cc(-n3ncc(=O)[nH]c3=O)cc2Cl)CCc2ccccc21 (centres unmarked) [Compound 2] | 63 | –
4 | 122 | Cc1sc(C2(c3c(Cl)cc(-n4ncc(=O)[nH]c4=O)cc3Cl)CCc3ccccc32)nc1-c1ccccc1 (centres unmarked) [Compound 5] | – | 88
5 | 237 | Cc1sc(C2(c3c(Cl)cc(-n4ncc(=O)[nH]c4=O)cc3Cl)CCc3ccccc32)nc1-c1ccccc1 (centres unmarked) [Compound 4] | 89.3 | –
